# Assay results: patent US20100249408A1, “USE OF NOVEL COMPOUND HAVING AFFINITY FOR AMYLOID, AND PROCESS FOR PRODUCTION OF THE SAME” (NIHON MEDI-PHYSICS CO., LTD., priority 2007, published 2010)
# Where two headings read alike, the source gives them in different places.
# Tests used:
# [1] = Transferability into brain and clearance (Example I-16, Comparative Example I-7); assay type: in vivo, male Wistar rats; settings: rats, intravenous injection, two animals
# Description: Using Compound 6, a time course change of radioactive accumulation in brain of male Wistar rats (7-week old) was measured.
# Also, radioactivity (hereinafter referred to as B in this Example) of 0.05 mL of a 1000-fold diluted solution of the injected solution was measured in the same manner as above. Using these measurement results, radioactive accumulation per unit weight of brain (% ID/g) at the respective time points was calculated in accordance with the following formula (3).
# [2] = biological target: intracerebral amyloid (aggregated Aβ1-40 injected into amygdaloid nucleus) (Homo sapiens, UniProt P05067); settings: rat with Aβ1-40 amyloid suspension in one amygdaloid nucleus, tail vein, brain removed 60 minutes after injection
# Description: The following experiment was carried out in order to examine whether amyloid in brain can be imaged by the compound of the present invention.
# The rats were examined 1 day after the injection of the amyloid suspension and the phosphate buffered physiological saline solution (pH 7.4).
# (4) Brain was removed 60 minutes after the injection to prepare a brain slice of 10 μm in thickness with a microtome (type: CM3050S, manufactured by LEICA).
# [3] = biological target: β2-m-amyloid (aggregated β2-microglobulin) (Homo sapiens, UniProt P61769); settings: β2-m-amyloid 0.8 μg/mL, compound 0.2-20.2 pM, 22° C., 3 hours (FIG. 16)
# From the text: (§1) Affinity of the present compounds with amyloid was examined by the following in vitro binding tests.
# insulin amyloid = insulin amyloid (Homo sapiens, UniProt P01308); settings: insulin amyloid 0.8 μg/mL, compound 0.2-20.2 pM, 22° C., 3 hours (FIG. 16)
# From the text: as §1
# amylin amyloid = amylin amyloid (Homo sapiens, UniProt P10997); settings: amylin amyloid 0.8 μg/mL, compound 0.2-20.2 pM, 22° C., 3 hours (FIG. 16)
# From the text: as §1
# [4] = SD rat; for Radioactive distribution per unit weight, Adrenal gland, Average / Radioactive distribution per unit weight, Blood, Average / Radioactive distribution per unit weight, Bone, Average / Radioactive distribution per unit weight, Brain, Average / Radioactive distribution per unit weight, Heart, Average / Radioactive distribution per unit weight, Kidney, Average / Radioactive distribution per unit weight, Large intestine, Average / Radioactive distribution per unit weight, Liver, Average / Radioactive distribution per unit weight, Lung, Average / Radioactive distribution per unit weight, Marrow, Average / Radioactive distribution per unit weight, Muscle, Average / Radioactive distribution per unit weight, Pancreas, Average / Radioactive distribution per unit weight, Small intestine, Average / Radioactive distribution per unit weight, Spleen, Average / Radioactive distribution per unit weight, Stomach, Average: tail vein
# Description: A solution of Compound 6 in diethylether was diluted with a 10 mg/mL ascorbic acid-containing physiological saline solution and adjusted to 8-12 MBq/mL in radioactive concentration. 0.2 mL each of the prepared sample solution was administered under non-anesthesia into the tail vein of the above rat. The rats were sacrificed by bleeding from abdominal artery, and each organ shown in Table 11 was removed 5, 30, 60 and 180 minutes after the administration. […] Also, radioactivity of the whole body of the rat after removal of the organs (hereinafter referred to as rest of the whole body) was measured. Using these measurement results, radioactive distribution per unit weight of each organ (% ID/g) at the respective time points was calculated in accordance with the following formula (6).
# Three animals were used for the experiment at the respective time points.
# [formula] • R^T: Radioactivity of target organ (cpm) • R^S: Sum of radioactivity of all the organs (cpm) • R^R: Radioactivity of the rest of the whole body (cpm) • M^T: Mass of target organ (g)
# Chain of insulin amyloid (P01308 25-54 limits assumed): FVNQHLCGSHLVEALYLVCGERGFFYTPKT
# Chain of insulin amyloid (P01308 90-110 limits assumed): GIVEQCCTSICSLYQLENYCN
# Chain of β2-m-amyloid (aggregated β2-microglobulin) (P61769 21-119): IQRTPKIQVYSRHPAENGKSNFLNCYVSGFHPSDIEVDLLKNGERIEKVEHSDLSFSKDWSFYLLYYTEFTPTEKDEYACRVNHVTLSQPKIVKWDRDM
# Chain of amylin amyloid (P10997 34-70 limits assumed): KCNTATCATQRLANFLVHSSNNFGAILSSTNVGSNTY
# Chain of intracerebral amyloid (aggregated Aβ1-40 injected into amygdaloid nucleus) (P05067 672-711): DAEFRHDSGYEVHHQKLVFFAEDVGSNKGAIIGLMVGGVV
smiles,measurement,setting,value
"Oc1ccc(-c2cn3cc([123I])ccc3n2)cc1 [Compound 6, [^123I]-2-(4′-hydroxyphenyl)-6-iodoimidazo[1,2-a]pyridine]",Radioactive accumulation in brain per unit weight,[1]; after 2 min.,0.96 % ID/g
same,Radioactive accumulation in brain per unit weight,[1]; after 5 min.,0.69 % ID/g
same,Radioactive accumulation in brain per unit weight,[1]; after 30 min.,0.16 % ID/g
same,Radioactive accumulation in brain per unit weight,[1]; after 60 min.,0.04 % ID/g
same,Accumulation of radioactivity at intracerebral amyloid (autoradiogram),[2],accumulating on intracerebral amyloid
same,Radioactive count on glass fiber filter versus group without addition of amyloid,[3],radioactivity was all high compared to the group without addition of amyloid suspension
same,Radioactive count on glass fiber filter versus group without addition of amyloid,insulin amyloid,radioactivity was all high compared to the group without addition of amyloid suspension
same,Radioactive count on glass fiber filter versus group without addition of amyloid,amylin amyloid,radioactivity was all high compared to the group without addition of amyloid suspension
same,Ratio (% ID/g at 5 minutes after the administration)/(% ID/g at 180 minutes after the administration),[4]; bone,4
same,Ratio (% ID/g at 5 minutes after the administration)/(% ID/g at 180 minutes after the administration),[4]; brain,122
same,Ratio (% ID/g at 5 minutes after the administration)/(% ID/g at 180 minutes after the administration),[4]; heart,13
same,Ratio (% ID/g at 5 minutes after the administration)/(% ID/g at 180 minutes after the administration),[4]; lung,7
same,Ratio (% ID/g at 5 minutes after the administration)/(% ID/g at 180 minutes after the administration),[4]; pancreas,14
same,"Radioactive distribution per unit weight, Adrenal gland, Average",[4]; 5 min. after administration,4.648 % ID/g
same,"Radioactive distribution per unit weight, Adrenal gland, Average",[4]; 30 min. after administration,0.642 % ID/g
same,"Radioactive distribution per unit weight, Adrenal gland, Average",[4]; 60 min. after administration,0.260 % ID/g
same,"Radioactive distribution per unit weight, Adrenal gland, Average",[4]; 180 min. after administration,0.020 % ID/g
same,"Radioactive distribution per unit weight, Blood, Average",[4]; 5 min. after administration,0.285 % ID/g
same,"Radioactive distribution per unit weight, Blood, Average",[4]; 30 min. after administration,0.174 % ID/g
same,"Radioactive distribution per unit weight, Blood, Average",[4]; 60 min. after administration,0.122 % ID/g
same,"Radioactive distribution per unit weight, Blood, Average",[4]; 180 min. after administration,0.109 % ID/g
same,"Radioactive distribution per unit weight, Bone, Average",[4]; 5 min. after administration,0.222 % ID/g
same,"Radioactive distribution per unit weight, Bone, Average",[4]; 30 min. after administration,0.088 % ID/g
same,"Radioactive distribution per unit weight, Bone, Average",[4]; 60 min. after administration,0.058 % ID/g
same,"Radioactive distribution per unit weight, Bone, Average",[4]; 180 min. after administration,0.053 % ID/g
same,"Radioactive distribution per unit weight, Brain, Average",[4]; 5 min. after administration,0.721 % ID/g
same,"Radioactive distribution per unit weight, Brain, Average",[4]; 30 min. after administration,0.124 % ID/g
same,"Radioactive distribution per unit weight, Brain, Average",[4]; 60 min. after administration,0.030 % ID/g
same,"Radioactive distribution per unit weight, Brain, Average",[4]; 180 min. after administration,0.006 % ID/g
same,"Radioactive distribution per unit weight, Heart, Average",[4]; 5 min. after administration,0.619 % ID/g
same,"Radioactive distribution per unit weight, Heart, Average",[4]; 30 min. after administration,0.147 % ID/g
same,"Radioactive distribution per unit weight, Heart, Average",[4]; 60 min. after administration,0.063 % ID/g
same,"Radioactive distribution per unit weight, Heart, Average",[4]; 180 min. after administration,0.047 % ID/g
same,"Radioactive distribution per unit weight, Kidney, Average",[4]; 5 min. after administration,0.999 % ID/g
same,"Radioactive distribution per unit weight, Kidney, Average",[4]; 30 min. after administration,0.540 % ID/g
same,"Radioactive distribution per unit weight, Kidney, Average",[4]; 60 min. after administration,0.244 % ID/g
same,"Radioactive distribution per unit weight, Kidney, Average",[4]; 180 min. after administration,0.108 % ID/g
same,"Radioactive distribution per unit weight, Large intestine, Average",[4]; 5 min. after administration,0.116 % ID/g
same,"Radioactive distribution per unit weight, Large intestine, Average",[4]; 30 min. after administration,0.070 % ID/g
same,"Radioactive distribution per unit weight, Large intestine, Average",[4]; 60 min. after administration,0.066 % ID/g
same,"Radioactive distribution per unit weight, Large intestine, Average",[4]; 180 min. after administration,7.296 % ID/g
same,"Radioactive distribution per unit weight, Liver, Average",[4]; 5 min. after administration,2.008 % ID/g
same,"Radioactive distribution per unit weight, Liver, Average",[4]; 30 min. after administration,0.509 % ID/g
same,"Radioactive distribution per unit weight, Liver, Average",[4]; 60 min. after administration,0.181 % ID/g
same,"Radioactive distribution per unit weight, Liver, Average",[4]; 180 min. after administration,0.083 % ID/g
same,"Radioactive distribution per unit weight, Lung, Average",[4]; 5 min. after administration,0.657 % ID/g
same,"Radioactive distribution per unit weight, Lung, Average",[4]; 30 min. after administration,0.209 % ID/g
same,"Radioactive distribution per unit weight, Lung, Average",[4]; 60 min. after administration,0.120 % ID/g
same,"Radioactive distribution per unit weight, Lung, Average",[4]; 180 min. after administration,0.089 % ID/g
same,"Radioactive distribution per unit weight, Marrow, Average",[4]; 5 min. after administration,0.713 % ID/g
same,"Radioactive distribution per unit weight, Marrow, Average",[4]; 30 min. after administration,0.194 % ID/g
same,"Radioactive distribution per unit weight, Marrow, Average",[4]; 60 min. after administration,0.000 % ID/g
same,"Radioactive distribution per unit weight, Marrow, Average",[4]; 180 min. after administration,0.030 % ID/g
same,"Radioactive distribution per unit weight, Muscle, Average",[4]; 5 min. after administration,0.381 % ID/g
same,"Radioactive distribution per unit weight, Muscle, Average",[4]; 30 min. after administration,0.078 % ID/g
same,"Radioactive distribution per unit weight, Muscle, Average",[4]; 60 min. after administration,0.034 % ID/g
same,"Radioactive distribution per unit weight, Muscle, Average",[4]; 180 min. after administration,0.022 % ID/g
same,"Radioactive distribution per unit weight, Pancreas, Average",[4]; 5 min. after administration,0.846 % ID/g
same,"Radioactive distribution per unit weight, Pancreas, Average",[4]; 30 min. after administration,0.207 % ID/g
same,"Radioactive distribution per unit weight, Pancreas, Average",[4]; 60 min. after administration,0.084 % ID/g
same,"Radioactive distribution per unit weight, Pancreas, Average",[4]; 180 min. after administration,0.060 % ID/g
same,"Radioactive distribution per unit weight, Small intestine, Average",[4]; 5 min. after administration,1.078 % ID/g
same,"Radioactive distribution per unit weight, Small intestine, Average",[4]; 30 min. after administration,6.335 % ID/g
same,"Radioactive distribution per unit weight, Small intestine, Average",[4]; 60 min. after administration,8.207 % ID/g
same,"Radioactive distribution per unit weight, Small intestine, Average",[4]; 180 min. after administration,1.408 % ID/g
same,"Radioactive distribution per unit weight, Spleen, Average",[4]; 5 min. after administration,0.462 % ID/g
same,"Radioactive distribution per unit weight, Spleen, Average",[4]; 30 min. after administration,0.140 % ID/g
same,"Radioactive distribution per unit weight, Spleen, Average",[4]; 60 min. after administration,0.075 % ID/g
same,"Radioactive distribution per unit weight, Spleen, Average",[4]; 180 min. after administration,0.072 % ID/g
same,"Radioactive distribution per unit weight, Stomach, Average",[4]; 5 min. after administration,0.360 % ID/g
same,"Radioactive distribution per unit weight, Stomach, Average",[4]; 30 min. after administration,1.025 % ID/g
same,"Radioactive distribution per unit weight, Stomach, Average",[4]; 60 min. after administration,1.043 % ID/g
same,"Radioactive distribution per unit weight, Stomach, Average",[4]; 180 min. after administration,1.081 % ID/g
